Measurements published in patent US12202827B2, “Aldosterone synthase inhibitor” (DAMIAN PHARMA AG, priority 2016, dated 2025).
Read-outs that look alike come from different tables or passages of the source. Blank lines part the entries; values can stand above or below the compound they belong to.

Assays:
[1] = Description: The X-ray powder diffraction studies were performed using a Bruker AXS D2 PHASER in Bragg-Brentano configuration. Using a Cu anode at 30 kV, 10 mA; sample stage standard rotating; monochromatisation by a Kβ-filter (0.5% Ni). Slits: fixed divergence slits 1.0 mm (=0.61°), primary axial Soller slit 2.5°, secondary axial Soller slit 2.5°. Detector: Linear detector LYNXEYE with receiving slit 5° detector opening. […] Measurement conditions: scan range 5 to 45° 2theta, sample rotation 5 rpm, 0.5 s/step, 0.010°/step, 3.0 mm detector slit; and all measuring conditions were logged in the instrument control file. As system suitability, corundum sample A26-826-S(NIST standard) was measured daily.
[2] = Solid state characterization of salts obtained as solids; type: physicochemical
[3] = Dynamic Vapour Sorption (DVS); type: physicochemical
Description: The Dynamic Vapour Sorption (DVS) studies were performed using a Surface Measurement Systems Ltd. DVS-1 No Video. The sample was loaded into a balance pan, typically 20-30 mg, and equilibrated at 0% RH. After the material was dried, the RH was increased with 10% per step for 1 hour per increment, ending at 95% RH. After completion of the sorption cycle, the sample was dried using the same method. The software used for data collection was DVSWin v3.01 No Video. Data analysis was performed using DVS Standard Analysis Suite v6.3.0 (Standard).

[4] = Hygroscopicity, open flasks in unconditioned ambient air for 24 hours; conditions: open flask; for Hygroscopicity (assessment in words): ambient air; for Absolute weight / Weight increase: room temperature, unconditioned ambient air
[5] = Shake-flask solubility study; conditions: 20° C.
Remark: listed apart in the source
[6] = up to 225° C., TGA/DSC
Description: The thermogravimetric analysis and differential scanning calorimetry (TGA/DSC) studies were performed using a Mettler Toledo TGA/DSC1 STARe System with a 34-position auto sampler. The samples were made using Al crucibles (40 μL; pierced). Typically 5-10 mg of sample was loaded into a pre-weighed Al crucible and was kept at 30° C. for 5 minutes, after which it was heated at 10° C./min from 30° C. to 350° C. A nitrogen purge of 40 ml/min was maintained over the sample. The software used for data collection and evaluation was STARe Software v12.10 build 5937. No corrections were applied to the thermogram.

[7] = not given; remark: listed apart in the source
[8] = literature; cited from earlier work
[9] = Acetic acid, sample DF1181-5-S11
[10] = Acetonitrile, sample DF1181-5-S7
[11] = Dichloromethane, sample DF1181-5-S2
[12] = Ethyl acetate, sample DF1181-5-S5
[13] = Methyl tert-butyl ether, sample DF1181-5-S3

XRPD after solubility determination [1, 9]: Amorphous
XRPD after solubility determination ([1]; Acetone, sample DF1181-5-S4): Form I-Conform starting material
XRPD after solubility determination [1, 10]: Form I-Conform starting material
XRPD after solubility determination [1, 11]: Form I-Conform starting material
XRPD after solubility determination ([1]; Ethanol, sample DF1181-5-S6): Form I-Conform starting material
XRPD after solubility determination [1, 12]: Form I-Conform starting material
XRPD after solubility determination ([1]; Methanol, sample DF1181-5-S1): Form I-Conform starting material
XRPD after solubility determination [1, 13]: Form I-Conform starting material
XRPD after solubility determination ([1]; Toluene, sample DF1181-5-S10): Form I-Conform starting material
XRPD after solubility determination ([1]; Water, sample DF1181-5-S9): Form I-Conform starting material
XRPD after solubility determination ([1]; n-Heptane, sample DF1181-5-S8): Form I-Conform starting material
Crystallinity [2]: good
Hygroscopicity (DVS) [2]: low
Polymorph tendency (XRPD) [2]: Not observed
Solid phase transition (XRPD) [2]: Not observed
Solvation [2]: anhydrous
Water solubility [2]: good
Reversibility of water uptake ([3]; DVS sorption/desorption cycles): reversible
Crystalline form upon DVS treatment (XRPD) ([3]; before and after DVS cycles): does not change
Hygroscopicity (assessment in words) [4]: non-hygroscopic
Absolute weight [4]: 103.9 mg
Weight increase ([4]; listed as Phosphate Salt): 0.57%
Solubility [5, 9]: 118 to 1180 mg/mL
Solubility ([5]; Acetone, sample DF1181-5-S4): <0.09 mg/mL
Solubility [5, 10]: <0.11 mg/mL
Solubility [5, 11]: <0.10 mg/mL
Solubility ([5]; Ethanol, sample DF1181-5-S6): 0.1 to 1.0 mg/mL
Solubility [5, 12]: <0.09 mg/mL
Solubility ([5]; Methanol, sample DF1181-5-S1): 112 to 1120 mg/mL
Solubility [5, 13]: <0.11 mg/mL
Solubility ([5]; Toluene, sample DF1181-5-S10): <0.10 mg/mL
Solubility ([5]; Water, sample DF1181-5-S9): >1000 mg/mL
Solubility ([5]; n-Heptane, sample DF1181-5-S8): <0.11 mg/mL
XRPD (polymorphic form) (wells 1-6, solvent Formic acid, co-solvent Water): Form I
XRPD (polymorphic form) (wells 7-12, solvent 2-Butanone, co-solvent n-Heptane): Form I
XRPD (polymorphic form) (wells 13-18, solvent Acetic acid, co-solvent Water): Form I
XRPD (polymorphic form) (wells 19-24, solvent Cyclohexanone, co-solvent n-Heptane): Form I
XRPD (polymorphic form) (wells 25-30, solvent Methanol, co-solvent Water): Form I
XRPD (polymorphic form) (wells 31-36, solvent Ethylacetate, co-solvent n-Heptane): Form I
XRPD (polymorphic form) (wells 37-42, solvent Ethanol, co-solvent Water): Form I
XRPD (polymorphic form) (wells 43-48, solvent Isopropyl acetate, co-solvent n-Heptane): Form I
XRPD (polymorphic form) (wells 49-54, solvent 2-Propanol, co-solvent Water): Form I
XRPD (polymorphic form) (wells 55-60, solvent Cyclopentyl methyl ether, co-solvent n-Heptane): Form I
XRPD (polymorphic form) (wells 61-66, solvent Acetone, co-solvent Water): Form I
XRPD (polymorphic form) (wells 67-72, solvent Toluene, co-solvent n-Heptane): Form I
XRPD (polymorphic form) (wells 79-84, solvent Cyclohexane, co-solvent n-Heptane): Form I
XRPD (polymorphic form) (wells 85-90, solvent Tetrahydrofuran, co-solvent Water): Form I
XRPD (polymorphic form) (wells 91-96, solvent Chlorobenzene, co-solvent n-Heptane): Form I
Mass loss upon heating [6]: 1.4%
Appearance ([7]; 25° C./60% RH, 1 month): White
Chiral Purity ([7]; 25° C./60% RH, 1 month): >99.5
Polymorph by XRPD ([7]; 25° C./60% RH, 1 month): Conform
Purity by HPLC ([7]; 25° C./60% RH, 1 month): 99.77
Water content ([7]; 25° C./60% RH, 1 month): 0.2
Appearance ([7]; 25° C./60% RH, 3 months): White
Chiral Purity ([7]; 25° C./60% RH, 3 months): >99.5
Polymorph by XRPD ([7]; 25° C./60% RH, 3 months): Conform
Purity by HPLC ([7]; 25° C./60% RH, 3 months): 99.81
Water content ([7]; 25° C./60% RH, 3 months): 0.2
Appearance ([7]; 25° C./60% RH, 6 months): White
Chiral Purity ([7]; 25° C./60% RH, 6 months): >99.5
Polymorph by XRPD ([7]; 25° C./60% RH, 6 months): Conform
Purity by HPLC ([7]; 25° C./60% RH, 6 months): 99.82
Water content ([7]; 25° C./60% RH, 6 months): 0.2
Appearance ([7]; 25° C./60% RH, 9 months): White
Chiral Purity ([7]; 25° C./60% RH, 9 months): >99.5
Polymorph by XRPD ([7]; 25° C./60% RH, 9 months): Conform
Purity by HPLC ([7]; 25° C./60% RH, 9 months): 99.84
Water content ([7]; 25° C./60% RH, 9 months): 0.2
Appearance ([7]; 25° C./60% RH, 12 months): White
Chiral Purity ([7]; 25° C./60% RH, 12 months): >99.5
Polymorph by XRPD ([7]; 25° C./60% RH, 12 months): Conform
Purity by HPLC ([7]; 25° C./60% RH, 12 months): 99.81
Water content ([7]; 25° C./60% RH, 12 months): 0.3
Appearance ([7]; 25° C./60% RH, Initial): White
Chiral Purity ([7]; 25° C./60% RH, Initial): >99.5
Polymorph by XRPD ([7]; 25° C./60% RH, Initial): Conform
Purity by HPLC ([7]; 25° C./60% RH, Initial): 99.87
Water content ([7]; 25° C./60% RH, Initial): 0.3
Appearance ([7]; 30° C./65%RH, 1 month): White
Chiral Purity ([7]; 30° C./65%RH, 1 month): >99.5
Polymorph by XRPD ([7]; 30° C./65%RH, 1 month): Conform
Purity by HPLC ([7]; 30° C./65%RH, 1 month): 99.76
Water content ([7]; 30° C./65%RH, 1 month): 0.2
Appearance ([7]; 30° C./65%RH, 3 months): White
Chiral Purity ([7]; 30° C./65%RH, 3 months): >99.5
Polymorph by XRPD ([7]; 30° C./65%RH, 3 months): Conform
Purity by HPLC ([7]; 30° C./65%RH, 3 months): 99.81
Water content ([7]; 30° C./65%RH, 3 months): 0.3
Appearance ([7]; 30° C./65%RH, 6 months): White
Chiral Purity ([7]; 30° C./65%RH, 6 months): >99.5
Polymorph by XRPD ([7]; 30° C./65%RH, 6 months): Conform
Purity by HPLC ([7]; 30° C./65%RH, 6 months): 99.84
Water content ([7]; 30° C./65%RH, 6 months): 0.2
Appearance ([7]; 30° C./65%RH, 9 months): White
Chiral Purity ([7]; 30° C./65%RH, 9 months): >99.5
Polymorph by XRPD ([7]; 30° C./65%RH, 9 months): Conform
Purity by HPLC ([7]; 30° C./65%RH, 9 months): 99.86
Water content ([7]; 30° C./65%RH, 9 months): 0.2
Appearance ([7]; 30° C./65%RH, 12 months): White
Chiral Purity ([7]; 30° C./65%RH, 12 months): >99.5
Polymorph by XRPD ([7]; 30° C./65%RH, 12 months): Conform
Purity by HPLC ([7]; 30° C./65%RH, 12 months): 99.85
Water content ([7]; 30° C./65%RH, 12 months): 0.3
Appearance ([7]; 30° C./65%RH, Initial): White
Chiral Purity ([7]; 30° C./65%RH, Initial): >99.5
Polymorph by XRPD ([7]; 30° C./65%RH, Initial): Conform
Purity by HPLC ([7]; 30° C./65%RH, Initial): 99.87
Water content ([7]; 30° C./65%RH, Initial): 0.3
Appearance ([7]; 40° C./75% RH, 1 month): White
Chiral Purity ([7]; 40° C./75% RH, 1 month): >99.5
Polymorph by XRPD ([7]; 40° C./75% RH, 1 month): Conform
Purity by HPLC ([7]; 40° C./75% RH, 1 month): 99.80
Water content ([7]; 40° C./75% RH, 1 month): 0.3
Appearance ([7]; 40° C./75% RH, 3 months): White
Chiral Purity ([7]; 40° C./75% RH, 3 months): >99.5
Polymorph by XRPD ([7]; 40° C./75% RH, 3 months): Conform
Purity by HPLC ([7]; 40° C./75% RH, 3 months): 99.79
Water content ([7]; 40° C./75% RH, 3 months): 0.5
Appearance ([7]; 40° C./75% RH, 6 months): White
Chiral Purity ([7]; 40° C./75% RH, 6 months): >99.5
Polymorph by XRPD ([7]; 40° C./75% RH, 6 months): Conform
Purity by HPLC ([7]; 40° C./75% RH, 6 months): 99.88
Water content ([7]; 40° C./75% RH, 6 months): 0.3
Appearance ([7]; 40° C./75% RH, Initial): White
Chiral Purity ([7]; 40° C./75% RH, Initial): >99.5
Polymorph by XRPD ([7]; 40° C./75% RH, Initial): Conform
Purity by HPLC ([7]; 40° C./75% RH, Initial): 99.87
Water content ([7]; 40° C./75% RH, Initial): 0.3
Long-term stability (purity, water content, chiral purity), in words ([7]; all assessed stability conditions and time periods): very stable
SMILES: N#Cc1ccc([C@H]2CCCc3cncn32)cc1.O=P(O)(O)O

Hygroscopicity (assessment in words) [4]: significant hygroscopicity
Absolute weight [4]: 113.2 mg
Weight increase [4]: 13.1%
Weight increase ([4]; listed as Chloride Salt): 13.1%
SMILES: Cl.N#Cc1ccc([C@H]2CCCc3cncn32)cc1
Hygroscopicity (in words) [8]: highly hygroscopic
